Assay results as given in patent US20230414565A1, “COMPOSITIONS AND METHODS FOR TREATING HEMATOLOGICAL MALIGNANCIES” (Magenta Therapeutics, Inc., priority 2022, published 2023).
Read-outs that look alike come from different tables or passages of the source.

Assays:
CD34+ cells [1] = assay: Phase 1 clinical trial: mobilization of CD34+ cells into peripheral blood, multicolor flow cytometry
CD34+CD90+CD45RA− cells [2] = assay: Phase 1 clinical trial: mobilization of CD34+CD90+CD45RA− cells into peripheral blood, multicolor flow cytometry
Description: (§1) The dose of MGTA-145 was one of 0.0075 mg/kg, 0.015 mg/kg, 0.03 mg/kg, 0.075 mg/kg, 0.15 mg/kg, or 0.3 mg/kg. […] The dose of MGTA-145 was one of 0.015 mg/kg, 0.03 mg/kg, 0.075 mg/kg, or 0.15 mg/kg. […] The dose of MGTA-145 was one of 0.03 mg/kg or 0.075 mg/kg.
(§2) Mobilization of white blood cells (WBCs), neutrophils, lymphocytes, basophils, and eosinophils was quantified by automated hematology analyzer.

[3] = test system: graft cell subsets (T cells, B cells, NK cells, TNC); details: cited from earlier work
CD34+ cells [4] = details: historical plerixafor alone data, Devine et al., Blood 2008; cited from earlier work
[5] = test system: hematopoietic stem and progenitor cell mobilization; details: U.S. Pat. Nos. 6,080,398 and 6,447,766; cited from earlier work
CD34+CD90+CD45RA− cells [6] = assay: Phase 1 Part D: apheresis collection of CD34+CD90+CD45RA− cells; details: for CD90+/kg (CD34+CD90+CD45RA− cells), mean / CD90+/kg (CD34+CD90+CD45RA− cells), median: 2 h stagger after plerixafor; for CD90+ (% of CD34+): 2 h stagger after plerixafor (Table 13)
Description: as §1
(§3) The table documents the body weight of each subject, the total CD34+ cells that were obtained through the apheresis procedure, the normalized CD34+ cells/kg of body weight, and the percentage of CD34+ cells that were CD90+CD45RA−.

CXCR2 = biological target: T1, CXCR2 (Homo sapiens, UniProt P25025); assay: Phase 1 clinical trial: CXCR2 expression on peripheral blood neutrophils; assay type: in vivo
T1 construct: endogenous in cells; host or cells: peripheral blood neutrophils of trial subjects
T1 sequence (P25025 1-360): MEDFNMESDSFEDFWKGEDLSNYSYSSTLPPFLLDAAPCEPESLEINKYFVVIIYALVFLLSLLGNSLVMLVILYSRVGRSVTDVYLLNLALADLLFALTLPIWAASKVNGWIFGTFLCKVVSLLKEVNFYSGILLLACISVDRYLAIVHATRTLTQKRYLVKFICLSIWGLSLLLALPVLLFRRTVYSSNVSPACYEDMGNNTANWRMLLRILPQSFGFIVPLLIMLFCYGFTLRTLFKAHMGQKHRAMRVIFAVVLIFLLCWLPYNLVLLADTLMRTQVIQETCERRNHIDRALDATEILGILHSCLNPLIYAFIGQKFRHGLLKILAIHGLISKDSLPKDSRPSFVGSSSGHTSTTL

CD34+ cells [7] = assay: Phase 1 Part D: apheresis collection yield of CD34+ cells
Description: as §1, §3

CD45.2 mice = assay: Primary and secondary transplantation of mobilized mouse cells at limit dilution (CRU); assay type: in vivo; details: FIG. 25, right panel; versus the other cohorts
Excerpt: Mice (CD45.1) were mobilized according to the scheme shown in FIG. 24 and mobilized cells transplanted into CD45.2 mice at limit dilution.

neutrophils = assay: Phase 1 clinical trial: mobilization of neutrophils, automated hematology analyzer; details: MGTA-145 monotherapy
Description: as §1, §2

MMP-9 = assay: Phase 1 clinical trial: plasma MMP-9 and TIMP-1, sandwich immunoassay; assay type: in vivo, human; details: MGTA-145 monotherapy, all six doses
Description: (§4) Additionally, blood samples were analyzed by multicolor flow cytometry to quantify changes in expression of neutrophil activation markers such as L-selectin, CD11b, CD18, and CD66. Additionally, matrix metalloproteinase 9 (MMP-9), a neutrophil protease believed to mediate mobilization in response to MGTA-145, as well as its cognate inhibitor, TIMP-1, were quantified in plasma samples collected at the same time points by sandwich immunoassay.

white blood cells (WBCs) = assay: Phase 1 clinical trial: mobilization of white blood cells, automated hematology analyzer; details: MGTA-145 monotherapy
Description: as §1, §2

[8] = Phase 1 clinical trial: treatment emergent adverse events; details: Part A; MGTA-145 0.0075-0.3 mg/kg, n = 24
[9] = test system: neutrophil activation markers (L-selectin, CD11b, CD18, CD66); assay: Phase 1 clinical trial: neutrophil activation markers, multicolor flow cytometry; assay type: in vivo, human; details: MGTA-145 monotherapy
Description: as §4

[10] = G-CSF; Pulsiper et al. (2009) Blood; cited from earlier work
[11] = test system: neutrophil activation markers (L-selectin, CD11b, CD18, CD66); details: 5 days of G-CSF; Falanga et al., Blood 1999; cited from earlier work
[12] = Part B, pooled placebo + plerixafor on Day 1
[13] = Part C, pooled placebo + plerixafor on Day 1
[14] = Pooled B + C, pooled placebo + plerixafor on Day 1
[15] = plerixafor alone, MGTA-145 dose 0
[16] = Chen et al., 2019, 2 LP for plerixafor (N = 50+), 1 LP for G-CSF (N = 112+)
[17] = Devine et al, 2008, yield of 1 LP, plerixafor N = 24, G-CSF N = 8
[18] = MGTA-145 monotherapy 0.03 mg/kg
[19] = MGTA-145 monotherapy, the other doses
[20] = Part A, MGTA-145 on Day 1, 0.03 mg/kg
[21] = Part A, MGTA-145 on Day 1, 0.3 mg/kg
[22] = 0.03 mg/kg MGTA-145 and plerixafor (staggered 2 hour)
[23] = higher doses (0.075, 0.15, 0.3 mg/kg), 2 hours post administration
[24] = lower doses (0.0075, 0.015, 0.03 mg/kg), between 1 and 2 hours post administration
[25] = G-CSF, N = 78 healthy donors, Chaidos et al, Blood 2012

## c1cc(CN2CCCNCCNCCCNCC2)ccc1CN1CCCNCCNCCCNCC1 [plerixafor, 1,1′-[1,4-phenylenebis(methylene)]-bis-1,4,8,11-tetra-azacyclotetradecane]
CD34+ cells [1]; Part B, plerixafor alone, MGTA-145 dose 0
  Peak CD34+ (#/μL) Median: 26 #/μL
CD34+ cells [1]; [12]
  Peak CD34+ (#/μL) Median: 26 #/μL
  Percent ≥20/μL peak CD34+: 64%
CD34+ cells [1]; Part C first day, plerixafor alone, MGTA-145 dose 0
  Peak CD34+ (#/μL) Median: 18 #/μL
CD34+ cells [1]; [13]
  Peak CD34+ (#/μL) Median: 18 #/μL
  Percent ≥20/μL peak CD34+: 0%
CD34+ cells [1]; Part C, pooled placebo + plerixafor on Day 2
  Percent ≥20/μL peak CD34+: 50%
CD34+ cells [1]; Pooled B + C, plerixafor alone, MGTA-145 dose 0
  Peak CD34+ (#/μL) Median: 20 #/μL
CD34+ cells [1]; [14]
  Peak CD34+ (#/μL) Median: 23 #/μL
  Percent ≥20/μL peak CD34+: 56%
CD34+ cells [1]; plerixafor alone
  Tmax (time of the peak CD34+ level) Median: 8 h
CD34+ cells [1]; [15]
  Peak CD34+/μL (FC vs. baseline) Median: 15
  Peak CD34+/μL Median: 20 µL⁻¹
CD34+CD90+CD45RA− cells [2]; plerixafor alone
  Peak CD34+CD90+CD45RA− mobilization (median): 8 cells/μL
[3]; [16]
  Graft CD3+, median: 6e+08 kg⁻¹
  Graft CD4+, median: 3.6e+08 kg⁻¹
  Graft CD8+, median: 2.2e+08 kg⁻¹
  Graft CD19+, median: 1.5e+08 kg⁻¹
  Graft CD34+, median: 4.7e+06 kg⁻¹
  Graft CD56+, median: 4e+07 kg⁻¹
[3]; [17]
  Graft CD3+, median: 4.6e+08 kg⁻¹
  Graft CD4+, median: 3.2e+08 kg⁻¹
  Graft CD8+, median: 1.3e+08 kg⁻¹
  Graft CD34+, median: 2.9e+06 kg⁻¹
  Graft CD56+, median: 3e+07 kg⁻¹
[3]; Devine et al, 2008, yield of 1 LP, plerixafor N = 24
  Graft CD19+, median: 1e+08 kg⁻¹
CD34+ cells [4]
  Patients with peak CD34+ ≥20 cells/μL: 28%
  Patients with peak CD34+ ≥40 cells/μL: 4%

## Gro-β T N65D: Gro-β T variant with aspartic acid in place of asparagine at position 65
[5]
  Potency of hematopoietic stem and progenitor cell mobilization: potency that is substantially greater than that of Gro-β T

## MGTA-145: CXCR2 agonist; truncated Gro-β with deletion of the first four N-terminal amino acids (SEQ ID NO: 2)
CD34+CD90+CD45RA− cells [6]; MGTA-145 0.03 mg/kg
  CD90+/kg (CD34+CD90+CD45RA− cells), mean: 1.3 ×10^6
  CD90+/kg (CD34+CD90+CD45RA− cells), median: 1.5 ×10^6
CD34+CD90+CD45RA− cells [6]; MGTA-145 0.03 mg/kg, 0.03 mg/kg
  CD90+ (% of CD34+): 31%
CD34+CD90+CD45RA− cells [6]; MGTA-145 […]
  CD90+/kg (CD34+CD90+CD45RA− cells), mean: 1.4 ×10^6
  CD90+/kg (CD34+CD90+CD45RA− cells), median: 1.2 ×10^6
CD34+CD90+CD45RA− cells [6]; MGTA-145 […], […]
  CD90+ (% of CD34+): 37%
CD34+ cells [1]; [18]
  Fold increase of CD34+ cells: 7 fold
  Peak concentration of CD34+ cells: ~10 cells/μL
CD34+ cells [1]; MGTA-145 monotherapy, single dose, across the six doses 0.0075-0.3 mg/kg
  Time of peak CD34+ mobilization post administration: about 30 minutes
CD34+ cells [1]; [19]
  Fold increase of CD34+ cells: 2-3 fold
CD34+ cells [1]; MGTA-145 monotherapy, the other doses (0.0075, 0.015, 0.075, 0.15, 0.3 mg/kg)
  Peak concentration of CD34+ cells: ~5 cells/μL
CD34+ cells [1]; [20]
  Peak CD34+ (#/μL) Median: 12 #/μL
  Percent ≥20/μL peak CD34+: 0%
CD34+ cells [1]; [21]
  Peak CD34+ (#/μL) Median: 3 #/μL
  Percent ≥20/μL peak CD34+: 0%
CXCR2; MGTA-145 0.07 mg/kg, staggered dosing, two consecutive days
  CXCR2 expression recovery prior to the second dose: ~80 % of baseline
CXCR2; MGTA-145 monotherapy
  CXCR2 on peripheral neutrophils: rapid downregulation of its target receptor, CXCR2, on peripheral neutrophils, followed by recovery over 24 hours
CD34+CD90+CD45RA− cells [2]; [18]
  Fold increase of CD34+CD90+CD45RA− cells: ~8.3 fold
  Peak concentration of CD34+CD90+CD45RA− cells: ~3 cells/μL
CD34+CD90+CD45RA− cells [2]; MGTA-145 monotherapy, six doses
  Time of peak CD34+CD90+CD45RA− mobilization post administration: 30 min
CD34+CD90+CD45RA− cells [2]; [19]
  Fold increase of CD34+CD90+CD45RA− cells: 2-3.5 fold
  Peak concentration of CD34+CD90+CD45RA− cells: 1-1.6 cells/μL
CD34+ cells [7]; [22]
  CD34+/kg, median: 4.3 ×10^6 cells
  Total CD34+ Yield, median: 321 (239-500) ×10^6 cells
CD34+ cells [7]; MGTA-145 0.03 mg/kg, 2 h stagger after plerixafor
  CD34+/kg, mean: 4.1 ×10^6
CD45.2 mice
  Engraftment rates, secondary transplantation: vastly improved engraftment rates
neutrophils; [23]
  Initial plateau of neutrophil mobilization: 5-8 ×10^3 cells/μL
neutrophils; [24]
  Peak mobilization of neutrophils: 13-15 ×10^3 cells/μL
MMP-9
  Molar ratio MMP-9:TIMP-1: rapid increase 30 minutes post-administration
  Plasma levels of MMP-9: increased sharply within 30 minutes post-administration
White blood cells (WBCs); [23]
  Initial plateau of WBC mobilization: 6-10 ×10^3 cells/μL
White blood cells (WBCs); [24]
  Peak mobilization of WBCs: 15-17 ×10^3 cells/μL
[8]
  Back pain/Musculoskeletal pain: 19 n (%)
  Subjects with any drug related TEAE: 19 n (%)
[5]
  Potency of hematopoietic stem and progenitor cell mobilization: potency superior to that of Gro-β by multiple orders of magnitude
[9]; all doses except the highest (0.3 mg/kg)
  Change relative to baseline of neutrophil activation marker CD66: < 2 fold
[9]; all six doses
  Change relative to baseline of neutrophil activation marker L-selectin: < 2 fold
  Change relative to baseline of neutrophil activation markers CD11b and CD18: < 2 fold

B1: G-CSF: standard mobilization agent, five days of Filgrastim (G-CSF) (protein, UniProt P09919 31-207, looked up)
Granulocyte …: TPLGPASSLPQSFLLKCLEQVRKIQGDGAALQEKLVSECATYKLCHPEELVLLGHSLGIPWAPLSSCPSQALQLAGCLSQLHSGLFLYQGLLQALEGISPELGPTLDTLQLDVADFATTIWQQMEELGMAPALQPTQGAMPAFASAFQRRAGGVLVASHLQSFLEVSYRVLRHLAQP
modifications: filgrastim
[10]
  Tolerability: Majority with bone pain,
[3]; [16]
  Graft CD3+, median: 2.5e+08 kg⁻¹
  Graft CD4+, median: 1.5e+08 kg⁻¹
  Graft CD8+, median: 7e+07 kg⁻¹
  Graft CD19+, median: 5e+07 kg⁻¹
  Graft CD34+, median: 4.2e+06 kg⁻¹
  Graft CD56+, median: 1e+07 kg⁻¹
[3]; [17]
  Graft CD3+, median: 1.3e+08 kg⁻¹
  Graft CD4+, median: 1.1e+08 kg⁻¹
  Graft CD8+, median: 4e+07 kg⁻¹
  Graft CD34+, median: 4.2e+06 kg⁻¹
  Graft CD56+, median: 2e+07 kg⁻¹
[3]; G-CSF, N = 40 healthy donors, Singhal et al, BMT 2000
  TNC/kg donor weight, median (range): 7.2 (3.2-14.0) ×10^8 cells
[3]; [25]
  Frequency of CD3+ T cells in graft, median: 45.3 % of CD45+
  Frequency of CD4+ T cells in graft, median: 29.8 % of CD45+
  Frequency of CD8+ T cells in graft, median: 11.8 % of CD45+
  Frequency of CD19+ B cells in graft, median: 10.5 % of CD45+
  Frequency of CD56+ NK cells in graft, median: 3.2 % of CD45+
  Frequency of Tregs in graft, median: 3.5 % of CD4+ T cells
  Frequency of iNKT cells in graft, median: 0.04 % of CD3+
[11]
  Increase in neutrophil activation markers: ~2.7 fold
